Assay results reported in patent US20240217968A1, “PHARMACEUTICAL COMPOUND” (DUKE STREET BIO LIMITED, priority 2021, published 2024).

Legend:
[1] = target: T1, recombinant human Flag-tagged PARP7 (amino acids 456-657) (Homo sapiens, UniProt Q7Z3E1); assay: PARP7 biochemical DELFIA assay (auto-MARylation); details: DELFIA readout, IC50 class
T1 construct: recombinant human Flag-tagged PARP7 (amino acids 456-657)
T1 sequence (Q7Z3E1 456-657): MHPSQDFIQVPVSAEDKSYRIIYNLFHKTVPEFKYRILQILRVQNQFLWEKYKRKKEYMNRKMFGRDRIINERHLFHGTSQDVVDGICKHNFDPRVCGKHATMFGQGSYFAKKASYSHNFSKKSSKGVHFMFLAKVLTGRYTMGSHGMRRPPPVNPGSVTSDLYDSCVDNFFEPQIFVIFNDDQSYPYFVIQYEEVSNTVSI
Outline: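 Readout is DELFIA time-resolved Eu fluorescence (Ex337 nm, Em620 nm) of biotin-ADP-ribose on immobilised Flag-tagged PARP7 456-657. Enzyme (12.5-37.5 nM as added) sat 30 min with compound before biotin-NAD+ (15 μM solution, pH 7.5 HEPES buffer) started 2-3 h room-temperature self-modification, stopped with excess NAD+.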

[2] = test system: MC38 colorectal cancer cells; assay: Induction of IFNβ in cancer cell supernatants (mouse IFNβ ELISA), MC38; assay type: cell-based, murine; details: 10 μM compound 177 alone or in combination with chemotherapeutic agents, 24 hours, FIG. 1
Procedure: (§1) Selected compounds were also tested for their ability to induce type I interferon (interferon β, IFNβ) production in cancer cells as a cell-based measure of PARP7 inhibition and its effects on stimulating the STING pathway signalling. […] Such data highlight the therapeutic utility of combining PARP7 inhibitors with chemotherapy or other agents that can induce aberrant cytosolic nucleic acids in order to further enhance an anti-tumour immune response.
(§2) CT26 and MC38 cells were seeded in 96-well microplates each at a density of 30,000 cells per well. Following overnight incubation, cells were treated with either DMSO, 10 μM compound 177, or various chemotherapeutic agents (final DMSO concentration of 0.2% v/v). Cells were also treated with 10 μM compound 177 in combination with various chemotherapeutic agents. After 24 hours, IFNβ was measured from cell supernatants using a sandwich enzyme linked immunosorbent assay (ELISA) assay kit (PBL Assay Sciences, catalogue number 42410-2) according to manufacturer's instructions.

[3] = test system: CT26 colorectal cancer cells; assay: Induction of IFNβ in cancer cell supernatants (mouse IFNβ ELISA), CT26; assay type: cell-based, murine; details: 10 μM compound 177 alone or in combination with chemotherapeutic agents, 24 hours, FIG. 1
Procedure: as §1, §2

[4] = test system: type I interferon responses; details: both in vitro and in vivo; cited from earlier work
[5] = test system: cancer cell lines with high baseline expression of interferon stimulated genes; details: cited from earlier work
tumour = details: animal models; cited from earlier work

Structure (SMILES)	IC50 [1] [µM]	further results
CC(COCCC(=O)N1CCN(c2ncc(C(F)(F)F)cn2)CC1)n1nc(C(F)(F)F)c2c(=O)[nH]ncc21 (single isomer, unassigned) [Compound 177, 1-(1-(3-oxo-3-(4-(5-(trifluoromethyl)pyrimidin-2-yl)piperazin-1-yl)propoxy)propan-2-yl)-3-(trifluoromethyl)-1,5-dihydro-4H-pyrazolo[3,4-d]pyridazin-4-one]	≤ 0.1	induction of IFNβ in cell supernatants [2]: induction of IFNβ; induction of IFNβ in cell supernatants [3]: induction of IFNβ
O=C(CCOCCn1nc(C(F)(F)F)c2c(=O)[nH]ncc21)N1CCN(C2CN(CC(F)(F)F)C2)CC1 [Compound 433]	1 to 10	
O=C(CCOCCn1nc(C(F)(F)F)c2c(=O)[nH]ncc21)N1CCN(c2nnc(C(F)(F)F)o2)CC1 [Compound 434]	≤ 0.1	
CC(COCCC(=O)N1CCN(c2ccc(C#N)cn2)CC1)n1nc(C(F)F)c2c(=O)[nH]ncc21 (centres unmarked) [Compound 438]	≤ 0.1	
CC(COCCC(=O)N1CCN(c2ncc(C#N)cn2)CC1)n1cc(C(F)F)c2c(=O)[nH]ncc21 (centres unmarked) [Compound 440]	≤ 0.1	
O=C(OCCCCn1nc(C(F)(F)F)c2c(=O)[nH]ncc21)N1CCN(c2ncc(C(F)(F)F)cn2)CC1 [Compound 441]	≤ 0.1	
N#Cc1ccc(N2CCN(C(=O)CCOCC(F)(F)c3cccc4c(=O)[nH]ncc34)CC2)nc1 [Compound 446]	≤ 0.1	
O=c1[nH]ncc2c1c(C(F)(F)F)nn2CCOCCS(=O)(=O)N1CCN(c2ncc(C(F)(F)F)cn2)CC1 [Compound 447]	≤ 0.1	
CC(COCCC(=O)N1CCN(c2ccc(C#N)cn2)CC1)n1cc(C(F)F)c2c(=O)[nH]ncc21 (centres unmarked) [Compound 449]	≤ 0.1	
CC(CCOCC(=O)N1CCN(c2ncc(Cl)cn2)CC1)n1nc(C(F)(F)F)c2c(=O)[nH]ncc21 (centres unmarked) [Compound 453]	≤ 0.1	
CC(COCC(=O)NC1CCN(c2ncc(C(F)(F)F)cn2)CC1)n1cc(C(F)(F)F)c2c(=O)[nH]ncc21 (centres unmarked) [Compound 458]	≤ 0.1	
CC(COCCC(=O)N1CCN(c2ncc(C#N)cn2)CC1)n1cc(C(F)(F)F)c2c(=O)[nH]ncc21 (centres unmarked) [Compound 465]	≤ 0.1	
Cc1cc(=O)n(CCOCCC(=O)N2CCN(c3ncc(C(F)(F)F)cn3)CC2)c2cn[nH]c(=O)c12 [Compound 470, 4-methyl-1-(2-(3-oxo-3-(4-(5-(trifluoromethyl)pyrimidin-2-yl)piperazin-1-yl)propoxy)ethyl)pyrido[2,3-d]pyridazine-2,5(1H,6H)-dione]	≤ 0.1	
O=C(CCOCCn1nc(C(F)(F)F)c2c(=O)[nH]ncc21)N1CCN(c2cc(C(F)(F)F)[nH]n2)CC1 [Compound 471]	≤ 0.1	
Cc1c(C(F)(F)F)c2c(=O)[nH]ncc2n1C(C)COCCC(=O)N1CCN(c2ncc(C(F)(F)F)cn2)CC1 (centres unmarked) [Compound 475]	≤ 0.1	
O=C(c1cccc(Cn2cc(C(F)(F)F)c3c(=O)[nH]ncc32)c1)N1CCN(c2ncc(C(F)(F)F)cn2)CC1 [Compound 478]	≤ 0.1	
CC(COCCC(=O)N1CCN(c2ccc(C(C)(F)F)cn2)CC1)n1cc(C(F)(F)F)c2c(=O)[nH]ncc21 (centres unmarked) [Compound 483]	≤ 0.1	
N#Cc1cnc(N2CCN(C(=O)CCOCCn3cc(C(F)(F)F)c4c(=O)[nH]ncc43)CC2)s1 [Compound 487]	≤ 0.1	
CC(COCCC(=O)N1CCN(c2cc(C(F)(F)F)[nH]n2)CC1)n1nc(C(F)(F)F)c2c(=O)[nH]ncc21 (centres unmarked) [Compound 489]	≤ 0.1	
O=C(OCC1CC1Cn1nc(C(F)(F)F)c2c(=O)[nH]ncc21)N1CCN(c2ncc(C(F)(F)F)cn2)CC1 (centres unmarked) [Compound 493]	≤ 0.1	
C[C@@H](COCCC(=O)N1CCN(c2ncc(C(F)(F)F)cn2)CC1)Nc1cn[nH]c(=O)c1C(F)(F)F [RBN-2397]		type I interferon responses [4]: restored type I interferon responses; inhibition of proliferation [5]: potently inhibited proliferation; tumour regression and specific anti-tumour immunity (tumour): tumour regression

Now from value to compound, other results behind:

IC50 [1] [µM]	Structure (SMILES)	further results
≤ 0.1	CC(COCCC(=O)N1CCN(c2ncc(C(F)(F)F)cn2)CC1)n1nc(C(F)F)c2c(=O)[nH]ncc21 (centres unmarked) [Compound 435]	
1 to 10	O=C(Cn1nc(C(F)(F)F)c2c(=O)[nH]ncc21)N1CCC(C(=O)N2CCN(c3ncc(C(F)(F)F)cn3)CC2)C1 (centres unmarked) [Compound 442]	
1 to 10	O=C(Cn1nc(C(F)(F)F)c2c(=O)[nH]ncc21)N1CCC(C(=O)N2CCN(c3ncc(C(F)(F)F)cn3)CC2)C1 (centres unmarked) [Compound 443]	
≤ 0.1	CC(COCCC(=O)N1CCN(c2ncc(Cl)cn2)CC1)n1cc(C(F)F)c2c(=O)[nH]ncc21 (centres unmarked) [Compound 450]	
≤ 0.1	CC(COCCC(=O)N1CCN(c2ncc(Cl)cn2)CC1)n1cc(C(F)F)c2c(=O)[nH]ncc21 (centres unmarked) [Compound 451]	
≤ 0.1	CC(CCOCC(=O)N1CCN(c2ncc(Cl)cn2)CC1)n1nc(C(F)(F)F)c2c(=O)[nH]ncc21 (centres unmarked) [Compound 452]	
≤ 0.1	CC(CCOCC(=O)N1CCN(c2ncc(C(F)(F)F)cn2)CC1)n1cc(C(F)(F)F)c2c(=O)[nH]ncc21 (centres unmarked) [Compound 454]	
≤ 0.1	CC(COCC(=O)N(C)C1CCN(c2ncc(C(F)(F)F)cn2)CC1)n1cc(C(F)(F)F)c2c(=O)[nH]ncc21 (centres unmarked) [Compound 463]	
≤ 0.1	Cc1c(C(F)(F)F)c2c(=O)[nH]ncc2n1C(C)COCCC(=O)N1CCN(c2ncc(C(F)(F)F)cn2)CC1 (centres unmarked) [Compound 474]	
≤ 0.1	CC(COCCC(=O)N1CCN(c2ncc(C(C)(F)F)cn2)CC1)n1cc(C(F)(F)F)c2c(=O)[nH]ncc21 (centres unmarked) [Compound 481]	
≤ 0.1	O=C(CCOCCn1nc(C(F)(F)F)c2c(=O)[nH]ncc21)N1CCN(c2ncc(C(F)(F)F)[nH]2)CC1 [Compound 488]	
≤ 0.1	O=C(OCC1CC1Cn1nc(C(F)(F)F)c2c(=O)[nH]ncc21)N1CCN(c2ncc(C(F)(F)F)cn2)CC1 (centres unmarked) [Compound 492]	
≤ 0.1	N#Cc1cnc(N2CCN(C(=O)CCOCCn3nc(C(F)(F)F)c4c(=O)[nH]ncc43)CC2)s1 [Compound 502]	
